PubChem BioAssay (NCI)
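In this assay, cells in 96-well plates receive the compound at five concentrations for 48 hours. Endpoints are linearly interpolated between the surrounding concentrations. GI50 = concentration required for 50% inhibition of growth. Definition used: TGI = concentration required for complete inhibition of growth.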

Assays:
Assay in all cases: inhibition of tumour cell growth, NCI panel, 48 h
MDA-MB-231 breast = tested on: MDA-MB-231 breast
SF-539 CNS = tested on: SF-539 CNS
HOP-92 NSCLC = tested on: HOP-92 NSCLC
UACC-62 melanoma = tested on: UACC-62 melanoma
TK-10 renal = tested on: TK-10 renal
SK-MEL-5 melanoma = tested on: SK-MEL-5 melanoma
HCT-116 colon = tested on: HCT-116 colon
KM12 colon = tested on: KM12 colon
CAKI-1 renal = tested on: CAKI-1 renal
A498 renal = tested on: A498 renal
SW-620 colon = tested on: SW-620 colon
IGROV1 ovarian = tested on: IGROV1 ovarian
RPMI-8226 leukemia = tested on: RPMI-8226 leukemia
OVCAR-3 ovarian = tested on: OVCAR-3 ovarian
DU-145 prostate = tested on: DU-145 prostate
SR leukemia = tested on: SR leukemia
A549 NSCLC = tested on: A549 NSCLC
NCI-H460 lung = tested on: NCI-H460 lung
MDA-MB-435 = tested on: MDA-MB-435
T-47D breast = tested on: T-47D breast
786-0 renal = tested on: 786-0 renal
LOX IMVI melanoma = tested on: LOX IMVI melanoma
HS 578T breast = tested on: HS 578T breast
MALME-3M melanoma = tested on: MALME-3M melanoma
SK-OV-3 ovarian = tested on: SK-OV-3 ovarian
NCI/ADR-RES ovarian = tested on: NCI/ADR-RES ovarian
OVCAR-5 ovarian = tested on: OVCAR-5 ovarian
MCF7 breast = tested on: MCF7 breast
SK-MEL-28 melanoma = tested on: SK-MEL-28 melanoma
EKVX NSCLC = tested on: EKVX NSCLC
SK-MEL-2 melanoma = tested on: SK-MEL-2 melanoma
BT-549 breast = tested on: BT-549 breast
HCC-2998 colon = tested on: HCC-2998 colon
ACHN renal = tested on: ACHN renal
UO-31 renal = tested on: UO-31 renal
PC-3 prostate = tested on: PC-3 prostate
SF-295 CNS = tested on: SF-295 CNS
UACC-257 melanoma = tested on: UACC-257 melanoma
U251 CNS = tested on: U251 CNS
NCI-H226 lung = tested on: NCI-H226 lung
SF-268 CNS = tested on: SF-268 CNS
SN12C renal = tested on: SN12C renal
SNB-19 CNS = tested on: SNB-19 CNS
HOP-62 NSCLC = tested on: HOP-62 NSCLC
MOLT-4 leukemia = tested on: MOLT-4 leukemia
SNB-75 CNS = tested on: SNB-75 CNS
COLO 205 colon = tested on: COLO 205 colon
OVCAR-8 ovarian = tested on: OVCAR-8 ovarian
NCI-H522 lung = tested on: NCI-H522 lung
RXF 393 renal = tested on: RXF 393 renal
K-562 leukemia = tested on: K-562 leukemia
OVCAR-4 ovarian = tested on: OVCAR-4 ovarian
HCT-15 colon = tested on: HCT-15 colon
HT29 colon = tested on: HT29 colon
CCRF-CEM leukemia = tested on: CCRF-CEM leukemia
M14 melanoma = tested on: M14 melanoma
NCI-H23 lung = tested on: NCI-H23 lung

CCOC(=O)/C(C#N)=C\C=C(/Cl)c1ccc(Cl)cc1
GI50 (MDA-MB-231 breast): 22.1 µM
TGI (MDA-MB-231 breast): 45.9 µM
GI50 (SF-539 CNS): 11.3 µM
TGI (SF-539 CNS): 33.9 µM
GI50 (HOP-92 NSCLC): 17.5 µM
TGI (HOP-92 NSCLC): 47.2 µM
GI50 (UACC-62 melanoma): 18.7 µM
TGI (UACC-62 melanoma): 38.9 µM
GI50 (TK-10 renal): 16.2 µM
TGI (TK-10 renal): 35.2 µM
GI50 (SK-MEL-5 melanoma): 18.4 µM
TGI (SK-MEL-5 melanoma): 39 µM
GI50 (HCT-116 colon): 11.2 µM
TGI (HCT-116 colon): 24.3 µM
GI50 (KM12 colon): 20 µM
TGI (KM12 colon): 45.8 µM
GI50 (CAKI-1 renal): 5.74 µM
TGI (CAKI-1 renal): 22.5 µM
GI50 (A498 renal): 32.3 µM
TGI (A498 renal): > 79.3 µM
GI50 (SW-620 colon): 5.94 µM
TGI (SW-620 colon): 26.3 µM
GI50 (IGROV1 ovarian): 5.78 µM
TGI (IGROV1 ovarian): 27.1 µM
GI50 (RPMI-8226 leukemia): 3.71 µM
TGI (RPMI-8226 leukemia): 29.8 µM
GI50 (OVCAR-3 ovarian): 7.76 µM
TGI (OVCAR-3 ovarian): 28.4 µM
GI50 (DU-145 prostate): 12.9 µM
TGI (DU-145 prostate): 25.5 µM
GI50 (SR leukemia): 4.78 µM
TGI (SR leukemia): > 100 µM
GI50 (A549 NSCLC): 30.4 µM
TGI (A549 NSCLC): 90.4 µM
GI50 (NCI-H460 lung): 31 µM
TGI (NCI-H460 lung): > 77.5 µM
GI50 (MDA-MB-435): 10.5 µM
TGI (MDA-MB-435): 32.9 µM
GI50 (T-47D breast): 2.83 µM
TGI (T-47D breast): 10.7 µM
GI50 (786-0 renal): 19.4 µM
TGI (786-0 renal): 37.4 µM
GI50 (LOX IMVI melanoma): 4.82 µM
TGI (LOX IMVI melanoma): 18.6 µM
GI50 (HS 578T breast): 22.7 µM
TGI (HS 578T breast): 60.7 µM
GI50 (MALME-3M melanoma): 18.6 µM
TGI (MALME-3M melanoma): 40.5 µM
GI50 (SK-OV-3 ovarian): > 46.8 µM
TGI (SK-OV-3 ovarian): > 85.4 µM
GI50 (NCI/ADR-RES ovarian): 22 µM
TGI (NCI/ADR-RES ovarian): 44.6 µM
GI50 (OVCAR-5 ovarian): 29.7 µM
TGI (OVCAR-5 ovarian): 59.4 µM
GI50 (MCF7 breast): 25.6 µM
TGI (MCF7 breast): > 78.7 µM
GI50 (SK-MEL-28 melanoma): 15.5 µM
TGI (SK-MEL-28 melanoma): 32.3 µM
GI50 (EKVX NSCLC): 26.5 µM
TGI (EKVX NSCLC): 63.9 µM
GI50 (SK-MEL-2 melanoma): 27.7 µM
TGI (SK-MEL-2 melanoma): > 91.6 µM
GI50 (BT-549 breast): 25.8 µM
TGI (BT-549 breast): 68 µM
GI50 (HCC-2998 colon): 16.1 µM
TGI (HCC-2998 colon): 31.1 µM
GI50 (ACHN renal): 18.3 µM
TGI (ACHN renal): 32.6 µM
GI50 (UO-31 renal): 18 µM
TGI (UO-31 renal): 35.4 µM
GI50 (PC-3 prostate): 15 µM
TGI (PC-3 prostate): 33.5 µM
GI50 (SF-295 CNS): 19 µM
TGI (SF-295 CNS): 38.1 µM
GI50 (UACC-257 melanoma): 17.6 µM
TGI (UACC-257 melanoma): 32.6 µM
GI50 (U251 CNS): 17.6 µM
TGI (U251 CNS): 32.1 µM
GI50 (NCI-H226 lung): 27.4 µM
TGI (NCI-H226 lung): 83.2 µM
GI50 (SF-268 CNS): 27.9 µM
TGI (SF-268 CNS): > 77 µM
GI50 (SN12C renal): 21 µM
TGI (SN12C renal): 54.7 µM
GI50 (SNB-19 CNS): 19.1 µM
TGI (SNB-19 CNS): 46.4 µM
GI50 (HOP-62 NSCLC): 17.5 µM
TGI (HOP-62 NSCLC): 35.2 µM
GI50 (MOLT-4 leukemia): 8.75 µM
TGI (MOLT-4 leukemia): > 100 µM
GI50 (SNB-75 CNS): 20.5 µM
TGI (SNB-75 CNS): 39.9 µM
GI50 (COLO 205 colon): 19.1 µM
TGI (COLO 205 colon): > 48 µM
GI50 (OVCAR-8 ovarian): 19.4 µM
TGI (OVCAR-8 ovarian): 42.1 µM
GI50 (NCI-H522 lung): 14 µM
TGI (NCI-H522 lung): 39.9 µM
GI50 (RXF 393 renal): 21.6 µM
TGI (RXF 393 renal): 45.9 µM
GI50 (K-562 leukemia): 12.9 µM
TGI (K-562 leukemia): > 64.3 µM
GI50 (OVCAR-4 ovarian): 27.8 µM
TGI (OVCAR-4 ovarian): > 76.4 µM
GI50 (HCT-15 colon): 15.1 µM
TGI (HCT-15 colon): 33.6 µM
GI50 (HT29 colon): 24 µM
TGI (HT29 colon): > 100 µM
GI50 (CCRF-CEM leukemia): 0.484 µM
TGI (CCRF-CEM leukemia): > 100 µM
GI50 (M14 melanoma): 14.8 µM
TGI (M14 melanoma): 31.4 µM
GI50 (NCI-H23 lung): 12.2 µM
TGI (NCI-H23 lung): 26.9 µM
